Results: ChEMBL document CHEMBL3507680, “University of Dundee, Gates Library screen for HepG2 cell viability”

Assay: Human HepG2 cell viability assay in 384 well format
Type: toxicity, cell-based
Set-up: dose 125 nL, time 70.5 hour; concentration not given beside the values
Details: HepG2 cells, read-out: Inhibition

## CNC(=O)C(C)(C)N1CCC[C@H]1C(=O)NC1CCCC1
  cytotoxicity at 70.5 h: -0.301%

## COCCN1C[C@H]2CN(C(=O)NCc3ccccc3)CCN2C1=O
  cytotoxicity at 70.5 h: -8.58%

## O=C(NC[C@H]1OC[C@@H](NC2COC2)[C@@H]1O)C1CCCC1
  cytotoxicity at 70.5 h: -8.61%

## Cc1ccc(CNC2(Cc3cc(-c4cccc(O)c4)on3)COC2)o1
  cytotoxicity at 70.5 h: -8.24%

## CC(C)(O)c1cc(CC2(NCc3ccccc3Cl)COC2)no1
  cytotoxicity at 70.5 h: -0.604%

## CC(C)(C)CN[C@@H]1CO[C@H](CNC(=O)c2ccncc2)[C@H]1O
  cytotoxicity at 70.5 h: 0.614%

## F[C@@H]1CN(CC2CC2)C[C@@H]1OCc1nc2ccccc2o1
  cytotoxicity at 70.5 h: -1.13%

## Cc1ccc2nc3n(c2c1)[C@@H](CNC(=O)c1ccncc1)COC3
  cytotoxicity at 70.5 h: 4.47%

## COc1cccc(CNC[C@H]2COCc3nc4cccnc4n32)n1
  cytotoxicity at 70.5 h: -8.19%

## COc1ccc(C(=O)NC[C@H]2COCc3nc4cc(C)ccc4n32)cc1
  cytotoxicity at 70.5 h: -4.37%

## Cc1cccc2c1nc1n2[C@@H](CNC(=O)C2CCOCC2)COC1
  cytotoxicity at 70.5 h: -4.19%

## COCC(=O)N[C@H](C)c1c(-c2ccc(Cl)cc2)noc1C(=O)O
  cytotoxicity at 70.5 h: -2.23%

## Cc1cccc2c1nc1n2[C@@H](CNC(=O)Cc2ccccc2)COC1
  cytotoxicity at 70.5 h: -1.08%

## C[C@@H](NCc1cccc(Cl)c1)c1onc(-c2ccccc2)c1C(=O)O
  cytotoxicity at 70.5 h: -3.56%

## Cc1cccc(CNC[C@H]2Cn3ccnc3CO2)n1
  cytotoxicity at 70.5 h: -1.57%

## CCN(CC)[C@H]1C[C@@H](Cc2cc(CO)on2)C1(C)C
  cytotoxicity at 70.5 h: -7.1%

## CN1C(=O)CO[C@H](c2ccc(NC(=O)Cc3cccs3)cc2)[C@H]1CO
  cytotoxicity at 70.5 h: -6.23%

## O=C(c1ccc2c(c1)OCO2)N1CCN2C(=O)NC[C@H]2C1
  cytotoxicity at 70.5 h: -7.42%

## CC(C)(C)C(=O)NC[C@H]1Cn2c(-c3ccccc3)cnc2CO1
  cytotoxicity at 70.5 h: -9.72%

## O=C(NC[C@H]1Cn2c(-c3ccccc3)cnc2CO1)C1CCOCC1
  cytotoxicity at 70.5 h: -9.93%

## COCCO[C@H]1COCCN(Cc2ccc(OC)cc2)C1
  cytotoxicity at 70.5 h: 8.32%

## CC(C)(C)c1coc([C@@H]2COCCN2Cc2c[nH]c3ccccc23)n1
  cytotoxicity at 70.5 h: 1.59%

## CC(C)(C)C(=O)N1C[C@@H](F)[C@@H](OCc2nc3ccccc3o2)C1
  cytotoxicity at 70.5 h: -3.29%

## Cn1c(CN2CCOC[C@H]2c2nc(C(C)(C)C)co2)nc2ccccc21
  cytotoxicity at 70.5 h: -0.449%

## COc1ccc2c(c1)nc1n2[C@@H](CNCc2nccs2)COC1
  cytotoxicity at 70.5 h: -13.7%

## COc1ccc2c(c1)nc1n2[C@@H](CNCc2ccccc2)COC1
  cytotoxicity at 70.5 h: 10.1%

## F[C@@H]1CN(C2CCC2)C[C@@H]1OCc1nc2ncccc2[nH]1
  cytotoxicity at 70.5 h: 15.4%

## CCN(CC)CC[C@H]1CN(C(=O)NC2CCCCC2)CC[C@H]1CC(=O)O
  cytotoxicity at 70.5 h: -1.74%

## CCN1C(=O)COC[C@@H]1[C@H](O)c1ccc(NC(=O)COC)cc1
  cytotoxicity at 70.5 h: 11%

## FC(F)(F)Oc1ccc(-c2c[nH]c([C@@H]3COCCN3)n2)cc1
  cytotoxicity at 70.5 h: -3.01%

## CC(=O)N1C[C@@H](F)[C@@H](OCc2nc3ccc(C#N)cc3[nH]2)C1
  cytotoxicity at 70.5 h: -1.65%

## COc1ccc(CNC[C@H]2COCc3nc4cccnc4n32)cn1
  cytotoxicity at 70.5 h: -6.49%

## O=C(NC[C@H]1OC[C@@H](NC2CCOCC2)[C@@H]1O)Nc1ccccc1
  cytotoxicity at 70.5 h: 14.3%

## CN1CCN2C(=O)N(c3ccccc3)C[C@H]2C1
  cytotoxicity at 70.5 h: -0.222%

## O=C(NC[C@H]1OC[C@@H](NC2CCOCC2)[C@@H]1O)c1cccs1
  cytotoxicity at 70.5 h: -8.14%

## CC(C)NC(=O)NC[C@H]1OC[C@@H](NCc2ccc(S(C)(=O)=O)cc2)[C@@H]1O
  cytotoxicity at 70.5 h: -3.26%

## COCCN1C[C@H]2CN(C(=O)NC(C)C)CCN2C1=O
  cytotoxicity at 70.5 h: -3.98%

## O=C(c1cccnc1)N1CCN2C(=O)N(Cc3ccc(F)cc3)C[C@H]2C1
  cytotoxicity at 70.5 h: 9.22%

## CC(=O)N1CCOC[C@H](Oc2ccc(C(F)(F)F)cc2)C1
  cytotoxicity at 70.5 h: 1.19%

## CC(C)CN1CCOC[C@H](Oc2ccc(S(C)(=O)=O)cc2)C1
  cytotoxicity at 70.5 h: 13.8%

## Cn1ccnc1CN1C[C@H]2CN(S(=O)(=O)c3ccccc3)CCN2C1=O
  cytotoxicity at 70.5 h: -2.62%

## CN1CCN2C(=O)N(C3CCOCC3)C[C@H]2C1
  cytotoxicity at 70.5 h: -2.12%

## Clc1ccc(CN2CCOC[C@H](Oc3cccnc3)C2)cc1
  cytotoxicity at 70.5 h: -2.34%

## C[C@@H]1CN(C2CCCCC2)CC[C@@]1(O)C1CCOCC1
  cytotoxicity at 70.5 h: -16%

## O=C1NCC2(CCCN(Cc3ccccc3OCCO)C2)O1 (stereo not drawn)
  cytotoxicity at 70.5 h: -8.84%

## CCC(CO)N(Cc1ccccn1)C(=O)c1ncccc1C (stereo not drawn)
  cytotoxicity at 70.5 h: 15.2%

## COc1cccc(OCC2CCCN(C(=O)c3ncc(F)cc3F)C2)c1 (stereo not drawn)
  cytotoxicity at 70.5 h: 1.3%

## COc1ccc(CCN2C(=O)O[C@@H]3CN(C4CCSCC4)C[C@@H]32)cc1
  cytotoxicity at 70.5 h: -6.37%

## Cc1cnc(C)c(N2CCCC(CO)(Cc3ccccc3C)C2)n1 (stereo not drawn)
  cytotoxicity at 70.5 h: 11.4%

## O=C(N[C@@H]1CCN(c2ncc(Cl)cc2Cl)C[C@H]1O)c1cnccn1
  cytotoxicity at 70.5 h: -2.1%

## CCCc1ccc(CN2CCC3(CCC(=O)N(C(C)C(=O)O)C3)CC2)o1 (stereo not drawn)
  cytotoxicity at 70.5 h: -4.9%

## CN(C)CC(C)(C)Cn1cnc(-c2ccccc2)c1-c1ncc[nH]1
  cytotoxicity at 70.5 h: 11.7%

## Cc1ccc(C(=O)O)c(N2Cc3cnc(C(C)(C)C)nc3C2)n1
  cytotoxicity at 70.5 h: -14.8%

## Cc1ccc(C2CC(=O)NCc3nc(N)sc32)cc1C (stereo not drawn)
  cytotoxicity at 70.5 h: -5.03%

## COc1ccc2c(c1)OCC(CNC(=O)c1ccncc1)C2 (stereo not drawn)
  cytotoxicity at 70.5 h: 13.9%

## CCCc1nc(C)cc(N2CCC3(CCC(=O)N(CCOC)C3)CC2)n1
  cytotoxicity at 70.5 h: -9.62%

## Cn1nccc1C(=O)N1CCOC(Cc2cccc(C(F)(F)F)c2)C1 (stereo not drawn)
  cytotoxicity at 70.5 h: 4.43%

## CCCn1nc(C2CCNCC2)n(Cc2ccccc2)c1=O
  cytotoxicity at 70.5 h: -7.28%

## O=C(CCn1cnnc1)N1CCCC(c2ncc[nH]2)C1 (stereo not drawn)
  cytotoxicity at 70.5 h: -2.12%

## CN(Cc1ccccc1)C1(C(=O)O)Cc2ccccc2C1
  cytotoxicity at 70.5 h: -1.88%

## CC(C)C(=O)N1CCN(C(=O)c2cc(C(C)C)on2)[C@H]2CS(=O)(=O)C[C@H]21
  cytotoxicity at 70.5 h: 14.2%

## O=C1OC2(CCN(C3CCCOC3)CC2)CN1CCc1ccccc1 (stereo not drawn)
  cytotoxicity at 70.5 h: 5.31%

## CN(C)c1nc2c(c(=O)[nH]1)CCN(C(=O)c1cccc3nccnc13)C2
  cytotoxicity at 70.5 h: 2.31%

## CCn1nc(C)c(CCn2ccnc2-c2cc3n(n2)CCCNC3)c1C
  cytotoxicity at 70.5 h: -3.85%

## CC(Cn1cncn1)NCc1nncn1C1CCCCC1 (stereo not drawn)
  cytotoxicity at 70.5 h: -1.66%

## COc1ccc(Cl)cc1C(=O)N1CCOC2(CNCCOC2)C1 (stereo not drawn)
  cytotoxicity at 70.5 h: -0.31%

## CC(C)=CCN1C[C@H]2CC[C@@H]1CN(C(=O)c1c[nH]c(=O)c(Cl)c1)C2
  cytotoxicity at 70.5 h: -1.3%

## O=C(C1CCC1)N1CCN(Cc2ccsc2)[C@H]2CS(=O)(=O)C[C@H]21
  cytotoxicity at 70.5 h: -0.678%

## Cc1ccc(C#N)c(N2CCC(c3nccn3CCN(C)C)CC2)n1
  cytotoxicity at 70.5 h: -7.04%

## Cc1nc(CCN(C)C(=O)C2COc3ccccc3C2)no1 (stereo not drawn)
  cytotoxicity at 70.5 h: 17.3%

## Cc1nccn1Cc1nnc(C2CCCN(Cc3cccnc3)C2)n1C (stereo not drawn)
  cytotoxicity at 70.5 h: 5.17%

## Cc1nc(N)sc1C(=O)N1CCCC(c2nccn2CCCN(C)C)C1 (stereo not drawn)
  cytotoxicity at 70.5 h: -5.45%

## CCNC(=O)[C@@H]1C[C@@H](NC(=O)Cc2ccccn2)CN1CCCSC
  cytotoxicity at 70.5 h: 14.8%

## CCC1CN(C(=O)c2ccc(Cl)cc2O)CCN1C(C)C (stereo not drawn)
  cytotoxicity at 70.5 h: -6.93%

## O=C(CCCc1cn[nH]c1)N1CCOCC(O)C1 (stereo not drawn)
  cytotoxicity at 70.5 h: 0.158%

## CCc1c(C)nn(CCNC(=O)C2CCCN(C(=O)N(C)C)C2)c1C (stereo not drawn)
  cytotoxicity at 70.5 h: -10.4%

## c1cn(Cc2nnc(C3CCN(C4CCOCC4)CC3)n2C2CC2)cn1
  cytotoxicity at 70.5 h: -4.93%

## CCN1CCn2nc(CCC(=O)N3CCCC3)cc2C1
  cytotoxicity at 70.5 h: -4.63%

## CN1CCC(c2nnc(CN3CCC(O)CC3)n2C)CC1
  cytotoxicity at 70.5 h: -5.78%

## Cc1scc(C(=O)N2CCC3(CCCN(C)C3=O)C2)c1-c1ccccc1 (stereo not drawn)
  cytotoxicity at 70.5 h: -11.2%

## Cc1cc(C)nc(CCNC(=O)[C@H]2CNC[C@@H](C(=O)N3CCCC3)C2)n1
  cytotoxicity at 70.5 h: 9.67%

## CC(C)(C)c1ccn(C2(C(=O)O)CCN(c3nccc(N)n3)CC2)n1
  cytotoxicity at 70.5 h: -3.64%

## Cc1nccn1CCC1CCCCN1Cc1ccc(N(C)C)nc1 (stereo not drawn)
  cytotoxicity at 70.5 h: -10.4%

## Cc1nc[nH]c1CN1CCN(C(=O)CCC(F)(F)F)[C@H]2CS(=O)(=O)C[C@H]21
  cytotoxicity at 70.5 h: -9.24%

## O=C1N(Cc2cccc(F)c2F)CCCC1(O)CN1CCCOCC1 (stereo not drawn)
  cytotoxicity at 70.5 h: -1.1%

## COc1ccc(NC(=O)CCC2CCCN(Cc3ncon3)C2)cc1Cl (stereo not drawn)
  cytotoxicity at 70.5 h: -7.33%

## Cn1cc(CN2CC[C@@H]3[C@@H](CCC(=O)N3CCc3c[nH]cn3)C2)cn1
  cytotoxicity at 70.5 h: -6.69%

## CN(C)[C@H]1CCCCN(C(=O)CCc2csc(N)n2)C1
  cytotoxicity at 70.5 h: -6.16%

## CC(C)(C)n1cc(C2=CCN(CCc3ccccc3)CC2)cn1
  cytotoxicity at 70.5 h: -3.25%

## CCc1c(C)sc(NC(=O)CN2CCN(CC)CC2)c1C(=O)OC
  cytotoxicity at 70.5 h: -2.99%

## O=S(=O)(Cc1ccccc1F)NCCN1CCOCC1
  cytotoxicity at 70.5 h: -2.45%

## COc1cccc(CN2CCC(c3nccn3C(C)C)CC2)c1
  cytotoxicity at 70.5 h: -13.1%

## Cc1cc(F)ccc1OC1(C(=O)O)CCN(Cc2ccncc2)CC1
  cytotoxicity at 70.5 h: -8.64%

## COCCN(C)CC(=O)N1C[C@H]2CC[C@@H]1CN(C(=O)c1ccncc1)C2
  cytotoxicity at 70.5 h: -10.1%

## Nc1nc(CCC(=O)N2CCOC(CC3CCCCC3)C2)cs1 (stereo not drawn)
  cytotoxicity at 70.5 h: -2.5%

## COc1ccc(-n2nnc(C(=O)NC(C)C)c2C2CC2)cc1
  cytotoxicity at 70.5 h: -6.86%

## COC(=O)C1CCN(C(=O)c2ccc(C)c(NS(C)(=O)=O)c2)CC1
  cytotoxicity at 70.5 h: -8.87%

## CCCNC(=O)c1ccc(NC(=O)c2cccc(OCC)c2)cc1
  cytotoxicity at 70.5 h: -7.63%

## O=S(=O)(Cc1ccccc1F)NCCCN1CCCCC1
  cytotoxicity at 70.5 h: -1.2%

## CCC(NC(=O)C1CCN(S(C)(=O)=O)CC1)c1ccc(OC)c(OC)c1 (stereo not drawn)
  cytotoxicity at 70.5 h: -7.44%

## O=C1CC(c2cccs2)c2snc(C(=O)O)c2N1 (stereo not drawn)
  cytotoxicity at 70.5 h: -9.35%

## CCCS(=O)(=O)N1CCN(c2cc(-n3nc(C)cc3C)nc(C)n2)CC1
  cytotoxicity at 70.5 h: -10.3%

## COc1ccc(C2CC(=O)Nc3c2cnn3C2CCCC2)cc1 (stereo not drawn)
  cytotoxicity at 70.5 h: -11.1%

## CC(=O)c1cn(CC(=O)NC(C(=O)O)C(C)C)c2ccccc12 (stereo not drawn)
  cytotoxicity at 70.5 h: 0.278%

## CC(COc1ccccc1)NCc1nc(-c2cccnc2)no1 (stereo not drawn)
  cytotoxicity at 70.5 h: -1.13%

## CCNC(=O)[C@@H]1CCCN1C1(C(=O)NC)CCCCC1
  cytotoxicity at 70.5 h: 4.64%

## Cc1noc([C@@H](C)NCc2ccc(F)cc2)c1C(=O)O
  cytotoxicity at 70.5 h: -1.34%

## O[C@@H]1C[C@@](CNCc2ccc(Cl)cc2)(COc2cccnc2)C[C@@H]1O
  cytotoxicity at 70.5 h: -10.2%
